# According to patent publication US9896512B2, “Antitumor peptide derived from a complementarity determining region of a humanized monoclonal antibody to NAP12B transporter” (Recepta Biopharma S.A., priority 2010, dated 2018):
# Where two headings read alike, the source gives them in different places. Non-standard residues stand in square brackets, D forms with d. Residues, ends and D or L forms follow the SMILES beside them. No end group written: not given here.
# Columns and labels:
# [1] = tested on: human cervix cancer HeLa cells; assay: Cell migration, wound healing assay; assay type: cell-based; details: peptide 500 μM, 24 hours
# Description: (§1) For the migration studies, 5×10^5 or 10^6 cells were distributed on 6-well plates and let them to adhere for 2 hours at 37° C./5% CO2. The culture medium was changed and the peptide was added at 500 μM overnight. The cell monolayer was “wounded” with a P1000 tip and incubated for 24 hours. Images of untreated cells (control) and peptide treated cells were captured with a JENOPTIK camera. Cell numbers (nuclei) were determined using the Pixcavator software version 5.0.
# [2] = tested on: human glioblastoma U87 cells; assay: Cell migration, wound healing assay; assay type: cell-based; details: peptide 500 μM, 24 hours
# Description: as §1
# [3] = tested on: human cervix cancer SiHa cells; assay: Cell migration, wound healing assay; assay type: cell-based; details: peptide 500 μM, 24 hours
# Description: as §1
# [4] = tested on: B16F10-Nex2 melanoma cells; assay: Cell migration, wound healing assay; assay type: cell-based, murine; details: peptide 500 μM, 24 hours after wounding
# Description: as §1
# Viable B16F10-Nex2 cells (5×105)/well were distributed on a 6-well culture plate and incubated overnight at 37° C. in a humidified chamber with 5% CO2. A P1000 tip was used for wounding the cell monolayer and the image was immediately captured (0 hour) using a camera (Jenoptik) with the software Progres 2.8. After 24 hours a new image of the same field was obtained and recorded (24 hours).
# Viable B16F10-Nex2 cells (3×10^5)/well were distributed in a 12-well culture plate and incubated for 4 hours at 37° C. in a humidified chamber with 5% CO2. Fresh medium containing RB10 (SEQ ID NO: 9) at different concentrations was added to the wells and incubated again for 4 hours. The monolayer wounding was performed as described above in Example 12, and images obtained accordingly. After 24 hours a new image in the same field was obtained and recorded (24 hours). […] Magnification ×100.
# [5] = tested on: B16F10-Nex2 melanoma cells; assay: In vivo protection against lung colonization (metastatic melanoma model); set-up: species or system C57B1/6 mice; details: 250 μg i.p. on days 1, 3, 5, 7, 9, 11; lungs after 22 days
# Description: (§2) Details of the in vitro tumor cell growth, cytotoxicity tests, determination of viable cells and in vivo protection experiments with B16F10 cells in a mouse metastatic model are described in Polonelli et al. (PLoS One. 3(6):e2371, 2008) and Dobroff et al. (Translat. Onc., 3: 204-217, 2010).
# Peptides RB9 and RB10 along with the apoptotic peptide A4H3, a true microantibody of cytotoxic anti-melanoma mAb (A4) (Dobroff et al., Translat. Onc., 3: 204-217, 2010), were tested for their protective effects against lung colonization by B16F10-Nex2 melanoma cells (2×105) injected intravenously in C57B1/6 mice (6 animals/group). Peptides were intraperitoneally administered (250 μg i.p.) on days 1, 3, 5, 7, 9, 11 after tumor cell challenge. Lungs of peptide-treated animals are shown in FIG. 5 after 22 days of tumor challenge. As noticed, peptide treatment was interrupted 10 days before animal sacrifice.
# In vivo protection by peptides RB9 and RB10 (and A4H3 control) against lung colonization by B16F10-Nex2 melanoma cells (2×105) injected intravenously in C57B1/6 mice (6 animals/group) is shown in FIG. 6. The other 5 CDRs of RebMab200 (SEQ ID NOs: 7, 10, 11, 12, 13) were unprotective in vivo. Peptides were administered in the same way as described above, and the number of lung nodules was determined.
# [6] = tested on: tumor cells; assay: Antitumor activity of RebMab 200 CDR peptides; assay type: cell-based
# Excerpt: as §2
# Amidated RebMab 200 CDR H2 (SEQ ID NO: 7) shares up to sixteen (16) identical amino acids with similar H2 fragments from several murine antibodies of various specificities.
# [7] = Peptide degradation by human plasma (HPLC / mass spectrum); assay type: in vitro ADME; details: human plasma, 37° C.
# Description: Peptides have variable half lives in the plasma due to the proteolytic activity and the renal filtration, which are relevant aspects in the pharmacokinetics of drug candidates.
# To analyze the peptide in HPLC and Mass Spectrum, an aliquot of 200 μL was transferred to a new Eppendorf tube and proteins were precipitated with 20 μL trifluoroacetic acid for 5 minutes at 4° C. After centrifugation for 10 minutes at 14,000 rpm, the supernatant was analyzed in an LC/ESI-MS (Waters).
# Regarding assays for determining time-lapse plasma degradation of RB9 peptide, peptide degradation by human plasma was monitored in HPLC and Mass spectra every 30 minutes as described above (FIG. 12). About 50% RB9 was cleaved after 2 hours of incubation at 37° C.
# [8] = tested on: tumor cells; assay: Cell adherence assay (detachment with trypsin/EDTA); assay type: cell-based
# Description: At a lower dose, cells would be detached with trypsin/EDTA at rates inversely proportional to the peptide concentration. Conceivably, peptides RB9 and RB10 affected the cytoskeleton dynamics of cells, thus signaling increased cell adhesion.
# B16F10-Nex2.1 cells (5×10^3) and U87-MG cells (1×10^4) were cultivated in 96-well plates and incubated with different concentrations of RB9 (SEQ ID NO: 8) and RB10 (SEQ ID NO: 9) from 0.01 to 1 mM (i.e., 0.01, 0.05, 0.1, 0.25, 0.7, 0.8 and 1 mM of RB9 and RB10 for B16F10-Nex 2.1 cells; and 0.25, 0.5, 0.75 and 1 mM of RB9 and RB10 for U87-MG cells). After 18 hours incubation, viable cells detached with trypsin/EDTA were counted using Trypan blue exclusion staining. All assays were performed in triplicate in two independent experiments.
# SKBR3 cells (1×10^4) were cultivated in 96-well plates and incubated with RB9 (SEQ ID NO: 8) and RB10 (SEQ ID NO: 9). After 18 hours incubation, viable cells detached with trypsin/EDTA were counted using Trypan blue exclusion staining. Assays were performed in triplicate in two independent experiments. The A2058 human melanoma cells (1×10^4) were incubated for 4 hours at 37° C. in a humidified chamber with 5% CO2. Fresh media containing different peptide concentrations of RB9 and RB10 ranging from 0 to 1 mM (i.e., 0, 0.25, 0.5 and 1 mM) was added to the wells and incubated for 24 hours. The media was then aspirated, cells were detached with 30 μl/well of trypsin-EDTA for five minutes at 37° C. and viable cells were counted in a Neubauer chamber using Trypan blue. As shown in FIGS. 2A-2D, 50% of cells were trypsin-EDTA resistant at 630 and 610 μM RB9 and RB10, respectively.
# [9] = tested on: melanoma B16F10-Nex2 cells; assay: Alanine scanning series cell adhesion assay (MTT after trypsin-EDTA); assay type: cell-based, murine; details: 1 mM peptide, 24 hours
# Description: The peptide RB10 (SEQ ID NO: 9) was engineered to replace each amino acid by alanine using Ala-scan methodology, and thus help evaluate the role of each amino acid on biological effect, specifically on the hyper-adherence observed with 1 mM peptide.
# For this purpose, viable melanoma B16F10-Nex2 cells (1×10^4)/well were distributed on a 96-well culture plate and incubated for 4 hours. Fresh media containing 1 mM of the alanine-scanning series for RB10 was added and incubated for 24 hours. Treated cells were detached with 30 μl/well of trypsin-EDTA for five minutes at 37° C. and gently washed with PBS. Cells were incubated for 4 hours with 0.5 mg/mL of MTT [3-(4,5-Dimethylthiazol-2-yl)-2,5-diphenyltetrazolium bromide] in fresh media and the formazan crystals were solubilized adding 1 volume of a 10% SDS solution overnight. Intensity was measured using a plate reader at 570 nm. […] The 100% value for each peptide represented the treated cells that had not been trypsinized.
molecule,measurement,setting,value
"C[C@H](NC(=O)[C@H](CCCNC(=N)N)NC(=O)[C@H](C)NC(=O)[C@@H](NC(=O)[C@H](CCC(=O)O)NC(=O)CNC(=O)[C@H](CCCNC(=N)N)NC(=O)[C@@H](C)NC(=O)[C@@H](N)CS)[C@@H](C)O)C(=O)N[C@H](C(=O)N[C@@H](Cc1ccccc1)C(=O)N[C@@H](C)C(=O)N[C@@H](Cc1ccc(O)cc1)C(=O)N[C@@H](Cc1c[nH]c2ccccc12)C(=O)NCC(=O)N[C@@H](CCC(N)=O)C(=O)NCC(N)=O)[C@@H](C)O [RB10 M3, C(dA)RGETARATFAYWGQG-NH2] (H-C[dA]RGETARATFAYWGQG-NH2; N-terminus assumed)",inhibition of cell migration,[1],almost complete inhibition
same,inhibition of cell migration,[1]; listed as RB10M3,complete or almost complete inhibition
same,inhibition of cell migration,[2],partial inhibition
same,inhibition of cell migration,[2]; listed as RB10M3,partial migration inhibition
same,inhibition of cell migration,[3],almost complete inhibition
same,inhibition of cell migration,[3]; listed as RB10M3,complete or almost complete inhibition
same,inhibition of cell migration (words),[4],complete inhibition
same,inhibition of cell migration (words),[4]; listed as RB10M3,Total inhibition
"AIYPGNGDTSYKQKFRG-NH2 [RB8, AIYPGNGDTSYKQKFRG-NH2]",protection against lung colonization (lung nodules),[5],unprotective
same,antitumor activity,[6]; listed as RBB,no antitumor activity
same,antitumor activity,[6]; listed as SEQ ID NO: 7,no antitumor effect
same,half-life,[7],< 1 h
"CARGETARATFAYWGQG (Sequence of CDR H3 from RebMab 200 (huMX35), obtainable by a known method) [RB10a]",adherence at peptide concentration of 1 mM (not suspended by trypsin/EDTA),[8]; 1 mM peptide,hyper-adherence
same,adherence of tumor cells to the substrate,"[8]; 96-well plates, RPMI 10% FCS, seen in B16F10-Nex2.1, U87MG, A5028 melanoma, SKBR3, SiHa, HCT cells",dose dependent increase of adherence
same,trypsin/EDTA-resistant cell adherence,[9],high trypsin/EDTA-resistant cell adherence
same,antitumor activity,[6],antitumor effects
GYTFTGYNIH-NH2 [RB11],protection against lung colonization (lung nodules),[5],unprotective
same,antitumor activity,[6],no antitumor activity
QQYSKLPLT-NH2 [RB14],protection against lung colonization (lung nodules),[5],unprotective
same,antitumor activity,[6],no antitumor activity
SASQDIGNFLN-NH2 [RB12],protection against lung colonization (lung nodules),[5],unprotective
same,antitumor activity,[6],no antitumor activity
YTSSLYS-NH2 [RB13],protection against lung colonization (lung nodules),[5],unprotective
same,antitumor activity,[6],no antitumor activity
